Source: doi:10.1101/2021.10.22.465361v1 (biorxiv, 2021)

The molecules below were run against T1, FABP7 (Brain fatty acid binding protein) (Homo sapiens, UniProt O15540) (assay: microscale thermophoresis).
T1 sequence (O15540 2-132): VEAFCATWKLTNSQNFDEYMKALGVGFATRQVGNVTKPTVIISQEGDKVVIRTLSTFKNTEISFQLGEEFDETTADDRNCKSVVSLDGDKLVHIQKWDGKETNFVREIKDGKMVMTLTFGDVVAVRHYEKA

Kd, ~0.5 µM:
CC/C=C\C/C=C\C/C=C\C/C=C\C/C=C\C/C=C\CCC(=O)O [DHA, docosahexaenoic acid]
CCCCCCCC/C=C\CCCCCCCC(=O)O [OA, oleic acid]
CCCCCCCCCCCCCCCCCC(=O)O [SA, stearic acid]
